Consider one compound from patent US10960084B2, “Modulation of fluid intake” (California Institute of Technology, priority 2018, dated 2021).

Entries after “also recorded” stand apart in the source; their conditions may differ.

Assay [1] concerns hM4Di-expressing MnPO^GLP1r neurons. In words: Slice current-clamp recording, CNO on hM4Di-expressing MnPO^GLP1r neurons. Type of assay: cell-based, mice. The following applies: CNO application. The text has this: Procedures for preparation of acute brain slices and recordings with optogenetic stimulations were similar to those described previously^[10],[36]. After decapitation, the brain was removed and immersed in ice-cold solution. Coronal slices ([…]) were cut using a vibratome (VT-1200s, Leica) and moved into HEPES-holding solution (NaCl 92, KCl 2.5, NaH2PO4 1.2, NaHCO3 30, HEPES 20, glucose 25, Na-ascorbate 5, Thiourea 2, Na14 pyruvate 3, MgSO4 2, CaCl2 2, pH 7.35). The slices were allowed to recover at 33° C. for 30 min and then held at room temperature ([…]) until use.
While recording, slices were perfused continuously (˜2 mL/min) with artificial cerebrospinal fluid (ACSF-NaCl 124, KCl2.5, NaH2PO4 1.2, NaHCO3 24, glucose 25, MgSO4 1, CaCl2 2) at 25° C. Neurons were visualized and targeted using an upright IR19 DIC microscope (BX51WI, Olympus). […] In order to confirm the PSCs recorded were GABAergic, picrotoxin (150 μM) was applied through the bath in part of the experiments. […] CNO (˜6 μM) was applied by a puff (30 s) from another glass pipette placed ˜50 μm from the recorded cell.

The subject of another assay is MnPO^GLP1r neurons. In words: Drinking assays with chemogenetic inhibition of MnPO^GLP1r neurons by CNO. Type of assay: in vivo, mice. As to conditions: hM4Di in MnPO^GLP1r. As to the method: For water-restriction experiments, animals were provided with 1 mL of water daily. For food restriction experiments, animals were provided 0.5 pellets/20 g body weight daily. All assays were performed in a modified lickometer as described previously^[35] or Biodaq monitoring system (Research Diets Inc). For all photometry assays, animals were acclimatized for 10-15 min in the lickometer cage before stimuli were given.
Long-term access assays: Optogenetic Testing—For FIGS. 1L-N and FIGS. 7L-O, satiated mice were given ad libitum access to water for 20 min with photostimulation. Photostimulation was delivered for 1-s followed by 3-s intervals throughout the behavioral sessions. For FIGS. 2J-M and FIGS. 11C-E, mice were given access to water for 20 min after 24 h water-restriction, and photostimulation was delivered for the first 10 min. For feeding assays (FIGS. 2J-M), animals were single-housed in Biodaq cages after 24 h food-restriction, and chow intake was measured for 20 min with or without light stimulation. For acute inhibition experiments, mice were given access to 150 mM NaCl (FIGS. 5D-E, FIGS. 13E-F), water (FIGS. 1L-N, FIGS. 7L-O, FIGS. 13A-D, FIGS. 13G-H) for 20-30 min after 24 h water-restriction or 300 mM sucrose (FIGS. 1L-N, FIGS. 7L-O) after food-restriction. For all acute inhibition experiments, CNO was injected at 10 mg/kg body weight, 30 min prior to the start of the behavior session. For acute activation experiments, CNO was injected at 1 mg/kg body weight (FIGS. 12L-M), 30 min prior to the start of the behavior session. For FIG. 3A, FIGS. 9A-C, and FIG. 13L, water or saline access was provided for 30 min after 24 hours of water restriction. For FIGS. 4A-B, water or HydroGel (ClearH2O) in a cup was provided for 30 min after 24 and 36 hours of water restriction, respectively. The weight of the cup was measured before and after the behavior session. For FIGS. 4K-L, 0.5 pellets of chow was provided for 30 min after 24 h food-restriction. The entire session was recorded using a camera at 30 fps and ingestion episodes were manually annotated.

The test system of a further assay is SFO^nNOS neurons. In words: Acute activation of SFO^nNOS neurons by hM3Dq-mCherry with CNO. In kind it is in vivo, mice. The following applies: hM3Dq-mCherry in SFO^nNOS; intraperitoneal CNO 1 mg/kg. As to the method:
Long-term access assays: Optogenetic Testing—For FIGS. 1L-N and FIGS. 7L-O, satiated mice were given ad libitum access to water for 20 min with photostimulation. Photostimulation was delivered for 1-s followed by 3-s intervals throughout the behavioral sessions. For FIGS. 2J-M and FIGS. 11C-E, mice were given access to water for 20 min after 24 h water-restriction, and photostimulation was delivered for the first 10 min. For feeding assays (FIGS. 2J-M), animals were single-housed in Biodaq cages after 24 h food-restriction, and chow intake was measured for 20 min with or without light stimulation. […] The weight of the cup was measured before and after the behavior session. […] The entire session was recorded using a camera at 30 fps and ingestion episodes were manually annotated.
We measured bulk fluorescence signals using fiber photometry as previously described^[26]. […] The fluorescence signal was then focused onto a femtowatt photoreceiver (Newport, Model 2151). […] The licks from the lickometer were simultaneously recorded as real-time TTL signals to the RP2.1. Fluorescence changes were analyzed using custom MATLAB (MathWorks) code as described previously^[26]. […] The resultant ΔF/F was calculated as (raw 490 nm signal-fitted 405 nm signal)/(fitted 405 nm signal). For brief access tests, the Area Under Curve (ΣΔFduring) was quantified by integrating the fluorescence signals during the bout. […]

For the compound `C[N+]1([O-])CCN(C2=Nc3cc(Cl)ccc3Nc3ccccc32)CC1` [CNO, clozapine-N-oxide], the “neurons in which firing is inhibited” value in assay [1] is on record as 6/7. For the same compound, the “water or saline intake under satiated conditions” value with MnPO^GLP1r neurons (satiated) is reported as “did not elevate water or saline intake”. In addition, in the assay on MnPO^GLP1r neurons (water-restricted animals), the “total water intake (30 min)” value is reported as “minor effect” and the “water consumption at the onset of drinking (first 1 min)” value is listed as “significantly increases water consumption at the onset of drinking”. In addition, the “total amount of isotonic saline intake” value in the assay with MnPO^GLP1r neurons (water-restricted, 30 min, CNO 10 mg/kg vs vehicle) is given as “strikingly increased; also recorded: causes overdrinking of isotonic saline”. Moreover, in the assay with MnPO^GLP1r neurons (water-restricted, 30 min, CNO vs vehicle), the “duration of saline intake (time spent for drinking)” value was “strikingly increased”. Further, the water drinking result in the assay with SFO^nNOS neurons is reported as “induce water drinking”.
